In US20170246111A1, “ACTIVE-LOADED PARTICULATE MATERIALS FOR TOPICAL ADMINISTRATION” (PHARMASOL GMBH, priority 2014, published 2017):

How the values were obtained:
[1] = 40 min
Experimental: 35.0% azithromycin physical mixture was as well dispersed in Milli-Q® water to get a final concentration of azithromycin of 5.6% in vials. Furthermore, 5.6% coarse drug powder was suspended in Milli-Q® water for comparison. The samples were stored at 25° C. shaking with 100 rpm in an Innova® 4230 shaker for 40 minutes. To separate the dissolved drug, the samples were first centrifuged (17,968×g; 10 minutes) and subsequently the supernatant was filtered (50 nm pore size, Whatman® 110603 filter). The drug concentration in such obtained sample was determined by HPLC.

[2] = at 25° C. in water, Mauludin PhD thesis 2008; cited from earlier work

Row | SMILES | saturation solubility in water [1] | saturation solubility Cs [2]
1 | CC[C@H]1OC(=O)[C@H](C)[C@@H](O[C@H]2C[C@@](C)(OC)[C@@H](O)[C@H](C)O2)[C@H](C)[C@@H](O[C@@H]2O[C@H](C)C[C@H](N(C)C)[C@H]2O)[C@](C)(O)C[C@@H](C)CN(C)[C@H](C)[C@@H](O)[C@]1(C)O [azithromycin raw drug powder, azithromycin] | 93 µg/mL | 
2 | COc1ccc([C@@H]2CC(=O)c3c(O)cc(O[C@@H]4O[C@H](CO[C@@H]5O[C@@H](C)[C@H](O)[C@@H](O)[C@H]5O)[C@@H](O)[C@H](O)[C@H]4O)cc3O2)cc1O [hesperidin raw powder, hesperidin] |  | about 20 μg/ml
